From patent US12091411B2, “IRAK degraders and uses thereof” (Kymera Therapeutics, Inc., priority 2022, dated 2024)
Like-named read-outs stand apart in the source and are kept apart here.

Biological target: T1, IRAK4 (Homo sapiens, UniProt Q9NWZ3)
T1 construct: Degradation of IRAK4 in OCI-LY10 was quantitatively measured using Meso Scale Discovery technology; endogenous in cells; host or cells: OCI-LY10
T1 sequence (Q9NWZ3 1-460): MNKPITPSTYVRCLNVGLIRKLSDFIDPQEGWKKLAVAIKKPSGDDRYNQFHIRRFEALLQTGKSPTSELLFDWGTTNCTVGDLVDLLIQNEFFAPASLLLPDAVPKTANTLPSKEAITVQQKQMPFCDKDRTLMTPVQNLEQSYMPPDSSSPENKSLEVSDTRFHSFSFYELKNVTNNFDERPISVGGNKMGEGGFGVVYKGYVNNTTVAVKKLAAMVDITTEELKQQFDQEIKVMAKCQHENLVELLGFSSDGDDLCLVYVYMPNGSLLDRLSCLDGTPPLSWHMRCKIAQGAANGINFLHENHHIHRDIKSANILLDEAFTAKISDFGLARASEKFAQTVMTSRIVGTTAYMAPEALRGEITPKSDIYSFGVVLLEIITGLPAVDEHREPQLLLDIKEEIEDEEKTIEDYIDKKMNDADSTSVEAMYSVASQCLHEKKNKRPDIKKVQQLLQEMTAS
Experiment: IRAK4 MSD Degradation in OCI-LY10
Type: cell-based
Conditions: OCI-LY10 cells, MSD
In short: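 OCI-LY10 cells exposed to 8-point 1:3 compound series (top 1 to 10 μM) for 4 to 24 h at 37 °C, 5% CO2. Lysate IRAK4 quantified by MSD sandwich immunoassay. DC50 from three-parameter logistic fit, binned A (<0.01 μM) to D (>0.2 μM or not tested).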

[1] = 4 hrs incubation, read-out: IRAK4 degradation in OCI-LY10 at 4 hrs: DC50
[2] = 24 hrs incubation, read-out: IRAK4 degradation in OCI-LY10 at 24 hrs: DC50

Compound | DC50 [1] [nM] | DC50 [2] [nM]
Cn1c(=O)n(C2CCC(=O)NC2=O)c2cccc(C#CCOC3CCN(C[C@H]4CC[C@H](n5cc(NC(=O)c6ccn7ccc(N8C[C@H]9C[C@@H]8CO9)nc67)c(C(F)F)n5)CC4)CC3)c21 (some centres unmarked) [I-231] | > 200 | > 200
Cn1c(=O)n(C2CCC(=O)NC2=O)c2cccc(N3CCN(C4CCN(C[C@H]5CC[C@H](n6cc(NC(=O)c7cnn8ccc(N9CCC%10(COC%10)C9)nc78)c(C(F)F)n6)CC5)CC4(F)F)CC3)c21 (some centres unmarked) [I-723] | > 200 | < 10
Cn1c(=O)n(C2CCC(=O)NC2=O)c2cccc(N3CCN(CC4COC5(C4)CN(C[C@H]4CC[C@H](n6cc7cc(NC(=O)c8cccc(C(F)(F)F)n8)c(C(C)(C)O)cc7n6)CC4)C5)CC3)c21 (some centres unmarked) [I-663] | > 200 | > 200
Cn1c(=O)n(C2CCC(=O)NC2=O)c2cccc(C#CCN3CCN(C[C@H]4CC[C@H](n5cc(NC(=O)c6cnn7cccnc67)c(C(C)(C)O)n5)CC4)CC3)c21 (some centres unmarked) [I-284] | > 200 | > 200
Cn1c(=O)n(C2CCC(=O)NC2=O)c2cccc(N3CC[C@H](CN4CCN(C[C@H]5CC[C@H](n6cc(NC(=O)c7cnn8ccc(N9C[C@H]%10C[C@@H]9CO%10)nc78)c(C(F)F)n6)CC5)CC4)C3)c21 (some centres unmarked) [I-364] | > 200 | > 200
Cn1c(=O)n(C2CCC(=O)NC2=O)c2cccc(N3CCN(C(=O)C[C@]4(O)CC[C@@H](n5cc(NC(=O)c6cnn7cccnc67)c(C(F)F)n5)CC4)CC3)c21 (some centres unmarked) [I-763] | > 200 | > 200
Cn1c(=O)n(C2CCC(=O)NC2=O)c2cccc(N3CCN(C4CCN([C@H]5CC[C@@H](n6cc(NC(=O)c7cnn8ccc(N9C[C@H]%10C[C@@H]9CO%10)nc78)c(C(F)F)n6)CC5)CC4)CC3)c21 (single isomer, unassigned) [I-425] | < 10 | > 200
Cn1c(=O)n(C2CCC(=O)NC2=O)c2cccc(C#CCN3CCN(C[C@H]4CC[C@H](n5cc(NC(=O)c6cccc(C(F)(F)F)n6)c(C(F)F)n5)CC4)CC3)c21 (some centres unmarked) [I-211] | > 200 | > 200
Cn1c(=O)n(C2CCC(=O)NC2=O)c2cccc(CC[C@@H]3CN(C[C@H]4CC[C@H](n5cc(NC(=O)c6cnn7cccnc67)c(C(F)F)n5)CC4)CCO3)c21 (some centres unmarked) [I-397] | > 200 | > 200
Cn1c(=O)n(C2CCC(=O)NC2=O)c2cccc(C#CCC3CCN(C[C@H]4CC[C@H](n5cc(NC(=O)c6cnn7ccc(N8C[C@H]9C[C@@H]8CO9)nc67)c(C(F)F)n5)CC4)CC3(F)F)c21 (some centres unmarked) [I-374] | 10 to 100 | > 200
COc1ccc2c(c1N1CC(CN3CCN(C[C@H]4CC[C@H](n5cc(NC(=O)c6cnn7ccc(N8C[C@H]9C[C@@H]8CO9)nc67)c(C(F)F)n5)CC4)CC3)C1)n(C)c(=O)n2C1CCC(=O)NC1=O (some centres unmarked) [I-675] | > 200 | < 10
Cc1ccc(-c2nn([C@H]3CC[C@H](CN4CCN(CC#Cc5cccc6c5n(C)c(=O)n6C5CCC(=O)NC5=O)CC4)CC3)cc2NC(=O)c2cncc(C#N)c2)nc1 (some centres unmarked) [I-269] | > 200 | > 200
Cn1c(=O)n(C2CCC(=O)NC2=O)c2cccc(N3CCC4(CC3)CN(Cc3ccc(-n5cc(NC(=O)c6cnn7cccnc67)c(C(F)F)n5)cc3)C4)c21 (centres unmarked) [I-399] | < 10 | > 200
COc1cc2nn([C@H]3CC[C@H](CN4CC(c5cccc6c5n(C)c(=O)n6C5CCC(=O)NC5=O)C4)CC3)cc2cc1NC(=O)c1cncc(C(C)(C)F)n1 (some centres unmarked) [I-134] | > 200 | > 200
C[C@@H]1CN(c2ccn3ncc(C(=O)Nc4cn([C@H]5CC[C@H](CN6CCN(CC#Cc7cccc8c7n(C)c(=O)n8C7CCC(=O)NC7=O)CC6)CC5)nc4C(F)F)c3n2)C[C@@H](C)O1 (some centres unmarked) [I-431] | > 200 | < 10
Cn1c(=O)n(C2CCC(=O)NC2=O)c2cccc(C#CCOC3CCN(C[C@H]4CC[C@H](n5cc(NC(=O)c6cccc(C#N)n6)c(C(C)(C)O)n5)CC4)CC3)c21 (some centres unmarked) [I-262] | > 200 | > 200
C[C@H]1CN(c2ccn3ncc(C(=O)Nc4cn([C@H]5CC[C@H](CN(C)C6CCN(c7cccc8c7n(C)c(=O)n8C7CCC(=O)NC7=O)CC6)CC5)nc4C(F)F)c3n2)CCO1 (some centres unmarked) [I-427] | > 200 | < 10
Cn1c(=O)n(C2CCC(=O)NC2=O)c2cccc(C#CCN3CCN(C[C@H]4CC[C@H](n5cc(NC(=O)c6cnn7ccc(N8CCC8)nc67)c(C(F)F)n5)CC4)CC3)c21 (some centres unmarked) [I-106] | < 10 | > 200
Cn1c(=O)n(C2CCC(=O)NC2=O)c2cccc(N3CCC(N(C[C@H]4CC[C@H](n5cc(NC(=O)c6cnn7cccnc67)c(C(F)F)n5)CC4)C(F)(F)F)CC3)c21 (some centres unmarked) [I-368] | > 200 | > 200
Cn1c(=O)n(C2CCC(=O)NC2=O)c2cccc(C#CCN3CCN(C[C@H]4CC[C@H](n5cc(NC(=O)c6cnn7ccc(OC8CCCCC8)nc67)c(C(F)F)n5)CC4)CC3)c21 (some centres unmarked) [I-246] | > 200 | > 200
CN(C[C@H]1CC[C@H](n2cc(NC(=O)c3cnn4ccc(N5CC(O)C5)nc34)c(C(F)F)n2)CC1)C1CCN(c2cccc3c2n(C)c(=O)n3C2CCC(=O)NC2=O)CC1(F)F (some centres unmarked) [I-508] | > 200 | > 200
Cc1cccc(C(=O)Nc2cc3cn([C@H]4CC[C@H](CN5CC[C@H](c6cccc7c6n(C)c(=O)n7C6CCC(=O)NC6=O)[C@@H](F)C5)CC4)nc3cn2)n1 (some centres unmarked) [I-634] | > 200 | > 200
Cn1c(=O)n(C2CCC(=O)NC2=O)c2cccc(OC3CC(N4CCN(C[C@H]5CC[C@H](n6cc(NC(=O)c7cnn8ccc(N9C[C@H]%10C[C@@H]9CO%10)nc78)c(C(F)F)n6)CC5)CC4)C3)c21 (some centres unmarked) [I-670] | > 200 | < 10

More lines, now with the values ahead:

DC50 [1] [nM] | DC50 [2] [nM] | Compound
> 200 | > 200 | O=C1CCC(c2cc(C#CCN3CCN(C[C@H]4CC[C@@H](n5cc(NC(=O)c6cnn7ccc(N8C[C@H]9C[C@@H]8CO9)nc67)c(C(F)F)n5)CC4)CC3)ccc2Cl)C(=O)N1 (some centres unmarked) [I-259]
> 200 | > 200 | O=C1CCC(c2ccc([C@H]3C[C@H](CO[C@H]4CCN(C[C@H]5CC[C@H](n6cc(NC(=O)c7cnn8ccc(N9C[C@H]%10C[C@@H]9CO%10)nc78)c(C(F)F)n6)CC5)C[C@H]4F)C3)cc2Cl)C(=O)N1 (some centres unmarked) [I-780]
< 10 | > 200 | Cn1c(=O)n(C2CCC(=O)NC2=O)c2cccc(C3CC(CN4CCN(C[C@H]5CC[C@H](n6cc(NC(=O)c7cnn8ccc(N9C[C@H]%10C[C@@H]9CO%10)nc78)c(C(F)F)n6)CC5)CC4)C3)c21 (some centres unmarked) [I-66]
> 200 | > 200 | Cn1c(=O)n(C2CCC(=O)NC2=O)c2cccc(C3CCN(C[C@H]4CC[C@H](n5cc6cc(NC(=O)c7cccc(C(F)(F)F)n7)c(C#N)cc6n5)CC4)CC3(F)F)c21 (some centres unmarked) [I-444]
10 to 100 | > 200 | Cn1c(=O)n(C2CCC(=O)NC2=O)c2cccc(C#CC3CCCN(C[C@H]4CC[C@H](n5cc(NC(=O)c6cnn7ccc(N8C[C@H]9C[C@@H]8CO9)nc67)c(C(F)F)n5)CC4)C3)c21 (some centres unmarked) [I-17]
> 200 | > 200 | Cn1c(=O)n(C2CCC(=O)NC2=O)c2cccc([C@H]3C[C@](F)(CN4CCN(C[C@H]5CC[C@H](n6cc(NC(=O)c7cnn8ccc(N9C[C@H]%10CC9CO%10)nc78)c(C(F)F)n6)CC5)CC4)C3)c21 (some centres unmarked) [I-574]
> 200 | > 200 | Cn1c(=O)n(C2CCC(=O)NC2=O)c2cccc(OC3CCN([C@H]4CC[C@H](n5cc(NC(=O)c6cnn7ccc(N8C[C@H]9C[C@@H]8CO9)nc67)c(C(F)F)n5)CC4)CC3(F)F)c21 (some centres unmarked) [I-756]
< 10 | > 200 | C[C@H]1CN(C[C@H]2CC[C@H](n3cc(NC(=O)c4cnn5ccc(N6C[C@H]7C[C@@H]6CO7)nc45)c(C(F)F)n3)CC2)CC[C@@H]1OCC#Cc1cccc2c1n(C1CC1)c(=O)n2C1CCC(=O)NC1=O (some centres unmarked) [I-63]
> 200 | > 200 | COc1cc2nn([C@H]3CC[C@H](CN4CCC5(CC4)CCN(c4ccc(Cl)c(C6CCC(=O)NC6=O)c4)CC5)CC3)cc2cc1NC(=O)c1cncc(C#N)c1 (some centres unmarked) [I-255]
> 200 | < 10 | Cn1c(=O)n(C2CCC(=O)NC2=O)c2cccc(C3CN([C@@H]4CCN(C[C@H]5CC[C@H](n6cc(NC(=O)c7cnn8ccc(N9C[C@H]%10C[C@@H]9CO%10)nc78)c(C(F)F)n6)CC5)C[C@H]4F)C3)c21 (some centres unmarked) [I-681]
> 200 | 10 to 100 | Cn1c(=O)n(C2CCC(=O)NC2=O)c2ccc(N3CC4(CCN(C[C@H]5CC[C@H](n6cc7cc(NC(=O)c8cccc(C(F)(F)F)n8)ncc7n6)CC5)CC4(F)F)C3)c(F)c21 (some centres unmarked) [I-737]
> 200 | < 10 | Cn1c(=O)n(C2CCC(=O)NC2=O)c2cccc(C#CCN3CCN(C[C@H]4CC[C@H](n5cc(NC(=O)c6cnn7ccc(N8CCCOCC8)nc67)c(C(F)F)n5)CC4)CC3)c21 (some centres unmarked) [I-291]
> 200 | > 200 | COc1ccc2c(c1N1CCC(N(C)C[C@H]3CC[C@H](n4cc(NC(=O)c5cnn6cccnc56)c(C(F)F)n4)CC3)C(F)(F)C1)n(C)c(=O)n2C1CCC(=O)NC1=O (some centres unmarked) [I-453]
< 10 | > 200 | Cn1c(=O)n(C2CCC(=O)NC2=O)c2cccc(N3CCN(CC4CCN(C[C@H]5CC[C@H](n6cc(NC(=O)c7cnn8ccc(N9C[C@@H]%10C[C@H]9CO%10)nc78)c(C(F)F)n6)CC5)CC4)CC3)c21 (some centres unmarked) [I-161]
